{
  "source": "patent US20240277873A1",
  "about": "“ULTRABRIGHT […] PROBES FOR DETECTION AND IMAGING” (Nanyang Technological University, priority 2021, published 2024)",
  "key": {"neutrophils [1]": {"tested_on": "neutrophils", "experiment": "In vitro cell chemiluminescent imaging", "format": "cell-based", "experimental": "3T3 cells and immune cells (neutrophils, DC cells, T-cells and macrophage) (10^4 cells) were seeded into confocal cell culture dishes (dia. 15 mm) and incubated for 24 h. […] After incubation, the medium was removed, and the cells were washed thrice. Chemiluminescence imaging of the cells were recorded on LX71 inverted microscope (Olympus), which was equipped with infinity 3-1 (Lumenera) CCD camera. During imaging, the excitation light was blocked and the images were recorded under an open filter, with an acquisition time of 60 s."}, "neutrophils [2]": {"tested_on": "neutrophils", "experiment": "Cytotoxicity assay (MTS), neutrophils", "format": "cell-based", "conditions": "2.5 to 50 μM, 24 h", "experimental": "Neutrophils and normal mouse embryonic fibroblasts (3T3) cells were seeded in 96-well plates which have 5×10^4 cells per well and incubated for 24 h. Then, BTPDNe at different concentrations (2.5, 5, 10, 20 and 50 μM) was added into the neutrophils and 3T3 cells, respectively. After 24 h incubation, MTS assay was added to the cell for 4 h incubation. After incubation, the absorbance of MTS at 490 nm was recorded by using a microplate reader (SpectraMax M, Switzerland). The assays were performed in five sets for each concentration."}, "dorsal skins of mice": {"tested_on": "dorsal skins of mice", "experiment": "Histopathologic, immunohistochemical and flow cytometry analyses of dorsal skins (IMQ psoriasis model)", "format": "in vivo, BALB/c mice", "conditions": "fresh slides of dorsal skins, 2-day IMQ treatment, immunofluorescence", "experimental": "(§1) The control group was treated with Vaseline (50 mg/d) and the IMQ-treatment group was applied with IMQ cream (60 mg/d, 5%) once a day. […] Probe BTPDNe (10 uM, 1 mM in DMSO) was thoroughly mixed with Aquaphor (˜10 mg) and applied for psoriasis imaging, followed by poly(methyl methacrylate) microneedle treatment for 1 min. Then, chemiluminescent signals at different time-points (0, 3, 5, 10, 15, 30, 45 and 60 min) after probe-treatment were recorded using IVIS system bioluminescence with acquiring time of 180 s. Until the third day, all the mice were sacrificed to collect tissue and blood for further experiments (hematoxylin and eosin (H&E) staining and flow cytometry analysis) as described in Example 11.\nThe dorsal skin samples were separated and soaked in 4% paraformaldehyde (4% PFA) for 12 h and immersed in 30% sucrose solution. The skin samples were stained by hematoxylin and eosin (H&E). Then, the samples were flash-frozen by liquid nitrogen, immobilized with optimal cutting temperature compound, and section slices ([…]). The thickness of epidermis was observed under a microscope (Nikon ECLIPSE 80i microscope). APC-Ly6G, as a neutrophil marker, was used to stain neutrophil cells and DAPI was applied for cell nucleus staining. The immunofluorescence was observed by Nikon ECLIPSE 80i microscope.\nAfter performing in vivo chemiluminescence imaging of neutrophils using BTPDNe in psoriasis-bearing mice with 2 day IMQ treatment, fresh section slices from dorsal skins were stained with Ly6G. Immunofluorescence imaging of slices with activated BTPDNe in green color was observed upon excitation at 405 nm and emission at 500-550 nm, while red color from Ly6G was observed upon excitation from 633-647 nm and emission at 660 nm. The immunofluorescence imaging was acquired by Nikon ECLIPSE 80i microscope."}, "IMQ-induced psoriasis": {"tested_on": "IMQ-induced psoriasis", "experiment": "Real-time chemiluminescence imaging in IMQ-induced psoriasis model", "format": "in vivo, BALB/c mice", "conditions": "3 min post-topical administration of BTPDNe, microneedle", "experimental": "as §1"}, "LPS-treated mice": {"tested_on": "LPS-treated mice", "experiment": "Real-time chemiluminescence imaging in LPS-induced peritonitis model", "format": "in vivo", "experimental": "The model was induced by intraperitoneal injection of LPS (15 ng) in 100 μL of PBS or PBS only as a control. Probe BTPDNe (40 μM·Kg^−1) or MPDNe (40 μM·Kg^−1) in PBS (10 mM, pH 7.4) containing 10% DMSO was intraperitoneally injected in mice. Then, chemiluminescent signals at different post-injection timepoints (0, 5, 10, 20, 45 and 60 min) were recorded using IVIS system bioluminescence with acquiring time of 120 s. After 3 h, the peritoneum was flushed with PBS (5 mL)+EDTA (5 mM). After erythrocyte lysis, neutrophils from C57Bl/6 mice were stained with a PE-labeled CD. After treatment with LPS for 3 h, CD11c antibody and an APC-labeled Ly6G antibody were added to the neutrophils, and the neutrophils were analyzed for double-positive events using flow cytometry (BD Biosciences). Data analysis was performed using Flowjo V10. Neutrophils were gated as CD45+CD11b+Ly6G+cells after the exclusion of doublets.\nFluorescence and chemiluminescence in vivo imaging of the probes were measured by an IVIS spectrum imaging system. Chemiluminescence imaging of the cells was recorded on LX71 inverted microscope. Tissue slices were cut by Leica, Germany slicer and imaged by a Nikon ECLIPSE 80i microscope. The images of tissue sections and cells were recorded with a LSM800 confocal laser scanning microscope. The white light was provided by 150 W LED High Bay Thermo Light."}, "NE": {"target": "T1, NE (Homo sapiens, UniProt P08246)", "T1 sequence (P08246 30-267)": "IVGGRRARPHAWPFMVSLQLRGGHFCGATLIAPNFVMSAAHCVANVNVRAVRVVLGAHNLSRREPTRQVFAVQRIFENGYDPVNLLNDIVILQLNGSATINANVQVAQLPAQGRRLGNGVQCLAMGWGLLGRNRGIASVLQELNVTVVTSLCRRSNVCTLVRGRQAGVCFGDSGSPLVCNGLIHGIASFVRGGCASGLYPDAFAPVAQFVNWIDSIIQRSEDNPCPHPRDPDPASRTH", "experiment": "Chemiluminescence and fluorescence changes of BTPDNe and MPDNe in the presence of NE (response, selectivity, LOD, half-life)", "format": "biochemical", "experimental": "Chemiluminescence and fluorescence changes of BTPDNe (20 μM) were determined in the presence of NE (0.1 U/ml), other different enzymes (˜0.1 U/mL, APN, ALP, Cas-3, cat B, GGT, β-gal and NTR) in 50 mM Tris, 1 M NaCl, 0.05% (w/v) Brij-35, pH 7.5 at 37° C. after 30 min incubation.\nChemiluminescence and fluorescence changes of BTPDNe and MPDNe (20 μM) in the presence of NE (0.1 U/mL), or other different enzymes (˜0.1 U/mL, APN, ALP, Cas-3, Cat B, GGT, β-gal, NTR, CatG and PR3) were tested after 30 min incubation in 50 mM Tris, 1 M NaCl, 0.05% (w/v) Brij-35, pH 7.5 at 37° C.\nTo determine the LOD for NE enzyme detection, the chemiluminescence of BTPDNe was recorded in 50 mM Tris, 1 M NaCl, 0.05% (w/v) Brij-35, pH 7.5 at 37° C. with different concentrations of NE (0, 0.05, 0.1, 0.5, 1, and 2 U/ml) for 30 min incubation. Then, initial reaction velocity was calculated."}},
  "data": [
    {"smiles": "COC1(c2ccc(-c3nc4ccccc4s3)c(OCc3ccc(NC(=O)[C@@H](NC(=O)[C@@H]4CCCN4C(=O)[C@H](C)NC(=O)[C@H](C)NC(C)=O)C(C)C)cc3)c2)OOC12C1CC3CC(C1)CC2C3", "note": "(some centres unmarked) [BTPDNe]", "values": [
      {"measurement": "differentiation of neutrophils from other immune cells", "setting": "neutrophils [1]; neutrophil, DC, macrophage, CTL, 3T3, 20 μM", "value": "differentiated neutrophils from other immune cells"},
      {"measurement": "activated chemiluminescence signal in neutrophils, 30 min", "setting": "neutrophils [1]; probe 10 μM, incubation 30 min", "value": 63.0, "unit": "pixels"},
      {"measurement": "activated chemiluminescence signal in neutrophils, 1 h", "setting": "neutrophils [1]; probe 10 μM, incubation 1 h", "value": 42.7, "unit": "pixels"},
      {"measurement": "cytotoxicity (cell viability, MTS)", "setting": "neutrophils [2]", "value": "no cytotoxicity"},
      {"measurement": "colocalization of probe activation with neutrophil marker", "setting": "dorsal skins of mice", "value": "colocalized well with APC-Ly6G"},
      {"measurement": "chemiluminescent signal from dorsal skins vs control group, day 1", "setting": "IMQ-induced psoriasis; day 1 post IMQ", "value": 3.1, "unit": "fold"},
      {"measurement": "chemiluminescent signal from dorsal skins vs control group, day 2", "setting": "IMQ-induced psoriasis; day 2 post IMQ", "value": 3.7, "unit": "fold"},
      {"measurement": "chemiluminescent signal from dorsal skins vs control group, day 3", "setting": "IMQ-induced psoriasis; day 3 post IMQ", "value": 2.9, "unit": "fold"},
      {"measurement": "chemiluminescent signal relative to MPDNe-injected mice", "setting": "LPS-treated mice; 20 min post-treatment of probes", "value": "~2.15", "unit": "fold"},
      {"measurement": "chemiluminescent signals after 60 min", "setting": "LPS-treated mice; LPS-treated mice, 60 min post injection", "value": "could still be observed"},
      {"measurement": "maximum chemiluminescent signal enhancement in peritoneum relative to negative control group", "setting": "LPS-treated mice; LPS-treated mice, 3 h post LPS, i.p. probe 40 μM·kg^−1", "value": "~9.2", "unit": "fold"},
      {"measurement": "selectivity towards NE over other enzymes", "setting": "NE; APN, ALP, Cas-3, cat B, GGT, furin, β-gal, NTR, PR3, CatG (~0.1 U/mL)", "value": "high selectivity"},
      {"measurement": "fluorescence increase after incubation with NE", "setting": "NE; at 515 nm, probe 20 μM, NE 0.1 U/mL, 30 min", "value": 20.1, "unit": "fold"},
      {"measurement": "chemiluminescence enhancement after incubation with NE", "setting": "NE; probe 20 μM, NE 0.1 U/mL, 50 mM Tris, 1 M NaCl, 0.05% Brij-35, pH 7.5, 37° C., 30 min, BTPDNe at 515 nm, MPDNe at 550 nm", "value": "~42.3", "unit": "fold"}
    ]}
  ]
}
